From US20040213771A1, “Targets and screens for agents useful in controlling parasitic nematodes” (priority 2001, published 2004)
Read-outs that look alike come from different tables or passages of the source.

Legend:
[1] = system: C. elegans wild type (N2), nhr-8(ok186), pgp-3(pk18) and nhr-8(ok186); pgp-3(pk18) worms
Experimental: Assays for nematode killing by selected toxins were performed in polystyrene 12-well tissue culture plates from Costar (Corning, N.Y.). Concentrated stock solutions of toxins were purified by filtration through 0.2 μm nitrocellulose filters (Corning, Corning, N.Y.). Because the toxin concentrations were not measured following filtration, the molarities of the solutions are estimates. Concentrated toxin stock solutions were serially diluted with S media (0.1 M NaCl, 0.05M potassium phosphate, 5 μg/ml cholesterol, 0.05 mM disodium EDTA, 0.025 mM FeSO4.7H2O, 0.001 mM MnCl2.4H2O, 0.001 mM ZnSO4.7H2O, 0.0001 mM CuSO4.5H2O, […]) to produce appropriate working solutions. To provide a bacterial food source, a saturated culture of E. coli OP50 [43] grown in LB was pelleted and resuspended in each toxin solution. For each 50 ml of toxin solution, 25 ml of the bacterial culture was pelleted for resuspension. Serial dilutions were made in bulk and aliquoted into individual wells (1 ml per well).
To assess killing by the toxins, single hermaphrodites were allowed to lay eggs in individual wells for a 12 hour interval, then transferred to fresh wells. Hatched larvae in each well were counted 12 hours after removal of the hermaphrodite and observed over the course of seven days for development and survival to adulthood [wild type animals complete postembryonic development within 3 days, 29].

[2] = system: C. elegans nhr-8(RNAi) worms; experiment: Colchicine toxicity assay after RNA-mediated interference of nhr-8; type: in vivo, Caenorhabditis elegans; settings: nhr-8(RNAi) vs nhr-8(ok186); percentage surviving to the adult stage; FIG. 7
Experimental: Single RNA strands were produced with the Ambion MEGAscript in vitro transcription kit, using as template a PCR amplicon (produced from cm14e12 using primers EL-15 and T7) that lacked sequences encoding the NHR-8 DNA binding domain. To produce dsRNA, equal amounts of sense and antisense transcription reactions and 3× injection buffer (20 mM KPO4 pH 7.5, 3 mM KCitrate pH 7.5, 2% PEG6000) were combined and incubated on a thermal cycler for strand annealing (95° C., 20 sec.; reduced by 2° C. per 10 sec. cycle for 11 cycles). Both gonad arms of young adult hermaphrodites were injected with the dsRNA [25]. Following a 12 hour purge period to remove embryos unlikely to have received a full dose of dsRNA, the injected hermaphrodites were used in the colchicine toxicity assay described above.

[3] = system: C. elegans wild-type (N2) and nhr-8(ok186) mutant animals; settings: for Sensitivity of nhr-8(ok186) mutant animals compared with wild-type (N2), L1 assay: 1% DMSO, 20° C., ~72 hours, FIGS. 13 and 14
Experimental: Assays for nematode sensitivity to toxic compounds known to induce mammalian cytochrome P450 expression (β-naphthaflavone, primaquine, and atrazine, available from Sigma) were performed in polystyrene 24-well tissue culture plates (Costar, Corning, N.Y.). Each culture well was filled with 0.8 ml of NGM agar (Lewis, J. A. and J. T. Fleming, Basic culture methods, in Caenorhabditis elegans: Modern Biological Analysis of an Organism, H. F. Epstein and D. C. Shakes, Editors. 1995, Academic Press: San Diego, Calif. pp. 3-29) containing compound additions as indicated. Compound solutions and dilutions were prepared in DMSO, and the appropriate amounts of compound were added to aliquots of molten NGM agar (equilibrated in a 55° C. water bath) prior to pouring the wells. For each compound, assays were performed using a range of final compound concentrations in the agar (0, 2, 5, 10, 20 and 30 ug/ml β-naphthoflavone; 0, 25, 50, 100, 250, and 77 ug/ml atrazine; 0, 20, 40, 60, 80 and 100 ug/ml primaquine). The final concentration of DMSO in the agar was 1% in every case, and controls of no addition and of 1% DMSO were also included in every assay series. Once the agar was solidified, each well was seeded with a lawn of E. coli OP50-1 prior to the addition of nematodes. All assays were performed in duplicate. Two different assay strategies were used to assess compound effects on nematode growth and viability: L1 assay: Synchrono5us nematode cultures of the wild-type strain N2 and of the mutant nhr-8(ok186) were obtained by isolating L1 larvae as described Lewis, J. A. and J. T. Fleming, Basic culture methods, in Caenorhabditis elegans: Modern Biological Analysis of an Organism, H. F. Epstein and D. C. […] The actual number of worms in each well was determined by direct count. […] After incubation at 20° C. for ˜72 hours, larval growth was assessed in each well by counting the number of gravid adults, L4 larvae/non-gravid adults, and larvae younger than the L4 stage. […] This difference was recorded as a “missing” class.

[4] = system: C. elegans CYP genes (CYP35A1-A5, CYP35B1-B3, CYP35C, CYP31A1, CYP31A3); experiment: Induction of cytochrome P450 gene expression, semi-quantitative RT-PCR; type: in vivo, Caenorhabditis elegans; settings: 5 ug/ml beta-naphthaflavone plus 1% DMSO or 1 mM chloroquine; ~72 hours at 20° C.; observed in both N2 and nhr-8(ok186) animals; FIG. 15
Experimental: The plates were incubated at 20° C. for ˜72 hours to allow for nematode growth and exposure to compound. Nematodes were then harvested, washed 3× in M9 to remove residual bacteria, and flash frozen in liquid nitrogen. Total RNA was isolated from the frozen nematodes as described (Sluder, A., S. W. Mathews, D. Hough, V. P. Yin, and C. V. Maina, The nuclear receptor superfamily has undergone extensive proliferation and diversification in nematodes. Genome Research, 1999. 9: 103-120).
The levels of cytochrome P450 mRNA in each RNA prep were assayed by semi-quantitative RT-PCR, using primers for specific cytochrome P450 gene sequences presented in Tables 5 and 6, in which nucleotides at degenerate positions are indicated using (N/N). […] Prior to performing PCR amplification to assess gene expression levels, the number of amplification cycles to be employed with each primer pair was selected to ensure that the amplification reactions remained within the linear reaction range [cycle number was selected as described in Johnstone, I. L. and J. D. Barry, Temporal reiteration of a precise gene expression pattern during nematode development Embo J. 1996, 15: 3633-3639, except that reaction products were analyzed by ethidium bromide-staining rather than Southern blotting]. […]

SMILES | Toxin sensitivity of nhr-8(ok186) homozygotes compared with wild type animals (percentage surviving to the adult stage) ([1]; in vivo) | Sensitivity of nhr-8(ok186) mutant animals compared with wild-type (N2), L1 assay [3] | CYP genes whose expression was induced [4] | also measured
COc1cc2c(c(OC)c1OC)-c1ccc(OC)c(=O)cc1[C@@H](NC(C)=O)CC2 [colchicine] | more sensitive |  |  | Toxin sensitivity of nhr-8(ok186); pgp-3(pk18) double mutant animals compared with animals with only a single disrupted gene ([1]; double mutant vs single mutants, FIG. 6): more sensitive; Toxin sensitivity of nhr-8(ok186) animals compared with pgp-3 putative null mutants ([1]; nhr-8(ok186) vs pgp-3(pk18), FIG. 6): as sensitive; Colchicine sensitivity after disruption of nhr-8 function by RNA mediated interference [2]: phenocopies the colchicine sensitivity of the nhr-8(ok186) mutants
COc1cc(NC(C)CCCN)c2ncccc2c1 (centres unmarked) [primaquine] |  | increased sensitivity |  | 
O=c1cc(-c2ccccc2)oc2ccc3ccccc3c12 [β-naphthoflavone] |  |  | CYP35A3 and CYP35A4 | Difference in sensitivity of wild-type (N2) and nhr-8(ok186) mutant animals ([3]; preliminary experiments, data not shown): did not reveal any detectable differences
CCN(CC)CCCC(C)Nc1ccnc2cc(Cl)ccc12 (centres unmarked) [chloroquine] | more sensitive |  | CYP35A1, CYP35B1, CYP35B2, and CYP35B3 | Toxin sensitivity of nhr-8(ok186); pgp-3(pk18) double mutant animals compared with animals with only a single disrupted gene ([1]; in vivo): more sensitive
CCNc1nc(Cl)nc(NC(C)C)n1 [atrazine] |  | slightly increased sensitivity |  | 
